Measurements taken from US9908868B2, “Isoindolinone compounds as GPR119 modulators for the treatment of diabetes, obesity, dyslipidemia and related disorders” (SANOFI, priority 2014, dated 2018).
pEC50: −log10 of the molar value.

Target: T1, human GPR119 (Homo sapiens, UniProt Q8TDV5)
T1 construct: expressed in transfected cells
T1 sequence (Q8TDV5 1-335): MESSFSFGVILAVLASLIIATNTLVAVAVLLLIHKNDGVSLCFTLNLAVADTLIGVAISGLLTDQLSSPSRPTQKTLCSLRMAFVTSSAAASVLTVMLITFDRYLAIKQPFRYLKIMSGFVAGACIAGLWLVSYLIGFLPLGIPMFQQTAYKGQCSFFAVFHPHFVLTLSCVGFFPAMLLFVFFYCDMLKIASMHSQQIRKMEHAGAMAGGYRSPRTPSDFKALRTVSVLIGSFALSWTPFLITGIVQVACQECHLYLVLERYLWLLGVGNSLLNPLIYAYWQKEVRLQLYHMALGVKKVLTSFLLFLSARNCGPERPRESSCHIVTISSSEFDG
Experiment: Functional cellular assay measuring GPR119-mediated cAMP release (HTRF) in HEK-293 cells stably expressing recombinant human GPR119
Format: cell-based
Conditions: cAMP response, cell line expressing human GPR119, 30 minutes at room temperature
Procedure: Functional Cellular Assays Measuring GPR119-Mediated cAMP Release
Compounds of the invention, which are agonists of GPR119, were characterized by functional assays measuring the cAMP response of HEK-293 cell lines stably expressing recombinant GPR119 from man, mouse or rat, or by using a hamster cell line HIT-T15 expressing GPR119 endogenously. The cAMP content was determined using a kit based on homogenous time-resolved fluorescence (HTRF) from Cisbio Corp. (cat. no. 62AM4PEC). For preparation, cells were split into T175 culture flasks and grown to near confluency in medium (DMEM/10% FCS for HEK-293 cells, and F-12K medium/10% horse serum/2.5% FCS for HIT-T15 cells, respectively). Medium was then removed and cells washed with PBS lacking calcium and magnesium ions, followed by proteinase treatment with accutase (Sigma-Aldrich, cat. no. A6964). Detached cells were washed and resuspended in assay buffer (1×HBSS; 20 mM HEPES, 0.1% BSA, 2 mM IBMX) and cellular density determined. They were then diluted to 400000 cells/mL and 25 μL-aliquots dispensed to the wells of 96-well plates. For measurement, 25 μL of test compound in assay buffer was added and incubated for 30 minutes at room temperature. After addition of HTRF reagents diluted in lysis buffer, the plates were incubated for 1 hour, followed by measuring the fluorescence ratio at 665 vs. 620 nm. Potency of the agonists was quantified by determining the concentrations that caused 50% of the maximal response/activation (EC50). See Table 7 for exemplary data obtained using the cell line expressing human GPR119.

Row | SMILES | pEC50
1 | CSCN1Cc2ccc(N3CC[C@@H](Oc4ccc(OCC5CC5)nc4)C3=O)cc2C1=O [Example 1-51, 6-[(3R)-3-[[6-(cyclopropylmethoxy)-3-pyridyl]oxy]-2-oxo-pyrrolidin-1-yl]-2-(methylsulfanylmethyl)isoindolin-1-one] | 7.24
2 | CS(=O)(=O)CN1Cc2ncc(N3CC[C@@H](Oc4ccc(Oc5ccc(F)cc5)nc4)C3=O)cc2C1=O [Example 1-66, 3-[(3R)-3-[[6-(4-fluorophenoxy)-3-pyridyl]oxy]-2-oxo-pyrrolidin-1-yl]-6-(methylsulfonylmethyl)-7H-pyrrolo[3,4-b]pyridin-5-one] | 6.79
3 | C[S+]([O-])CN1Cc2ccc(N3CC[C@@H](Oc4ccc(Oc5ccc(F)cc5)nc4)C3=O)cc2C1=O (stereo partly drawn) [Example 1-50, 6-[(3R)-3-[[6-(4-fluorophenoxy)-3-pyridyl]oxy]-2-oxo-pyrrolidin-1-yl]-2-(methylsulfinylmethyl)isoindolin-1-one] | 7.19
4 | CN(C)C(=O)CN1C(=O)c2cc(N3CC[C@@H](Oc4ccc(OCC5CC5)nc4)C3=O)ccc2C1(C)C [Example 1-12, 2-[5-[(3R)-3-[[6-(cyclopropylmethoxy)-3-pyridyl]oxy]-2-oxo-pyrrolidin-1-yl]-1,1-dimethyl-3-oxo-isoindolin-2-yl]-N,N-dimethyl-acetamide] | 4.53
5 | CN(C)C(=O)c1nc2ccc(N3CC[C@@H](Oc4ccc(OCC5CC5)nc4)C3=O)cc2c(=O)[nH]1 [Example 1-44, 6-[(3R)-3-[[6-(cyclopropylmethoxy)-3-pyridyl]oxy]-2-oxo-pyrrolidin-1-yl]-N,N-dimethyl-4-oxo-3H-quinazoline-2-carboxamide] | 6.56
6 | O=C(CN1Cc2ccc(N3CC[C@@H](Oc4ccc(OCC(F)(F)F)nc4)C3=O)cc2C1=O)N1CCC(O)CC1 [Example 1-46, 2-[2-(4-hydroxy-1-piperidyl)-2-oxo-ethyl]-6-[(3R)-2-oxo-3-[[6-(2,2,2-trifluoroethoxy)-3-pyridyl]oxy]pyrrolidin-1-yl]isoindolin-1-one] | 6.74
7 | CN(C)C(=O)CN1Cc2ccc(N3CC[C@@H](Oc4ccc(OC5CC5)nc4)C3=O)cc2C1=O [Example 1-37, 2-[6-[(3R)-3-[[6-(cyclopropoxy)-3-pyridyl]oxy]-2-oxo-pyrrolidin-1-yl]-1-oxo-isoindolin-2-yl]-N,N-dimethyl-acetamide] | 5.98
8 | NC(=O)CN1Cc2ccc(N3CC[C@@H](Oc4ccc(OCC(F)(F)F)nc4)C3=O)cc2C1=O [Example 1-56, 2-[1-oxo-6-[(3R)-2-oxo-3-[[6-(2,2,2-trifluoroethoxy)-3-pyridyl]oxy]pyrrolidin-1-yl]isoindolin-2-yl]acetamide] | 7.29
9 | CC(C)(C)OC(=O)CN1Cc2c(F)cc(N3CC[C@@H](Oc4ccc(OCC5CC5)nc4)C3=O)cc2C1=O [Example 1-01, Tert-butyl 2-[6-[(3R)-3-[[6-(cyclopropylmethoxy)-3-pyridyl]oxy]-2-oxo-pyrrolidin-1-yl]-4-fluoro-1-oxo-isoindolin-2-yl]acetate] | 7.05
10 | O=C1OCCC1N1Cc2ccc(N3CC[C@@H](Oc4ccc(OCC5CC5)nc4)C3=O)cc2C1=O (stereo partly drawn) [Example 1-06, 6-[(3R)-3-[[6-(cyclopropylmethoxy)-3-pyridyl]oxy]-2-oxo-pyrrolidin-1-yl]-2-(2-oxotetrahydrofuran-3-yl)isoindolin-1-one] | 6.82
11 | C[S+]([O-])CN1Cc2ncc(N3CC[C@@H](Oc4ccc(Oc5ccc(F)cc5)nc4)C3=O)cc2C1=O (stereo partly drawn) [Example 1-55, 3-[(3R)-3-[[6-(4-fluorophenoxy)-3-pyridyl]oxy]-2-oxo-pyrrolidin-1-yl]-6-(methylsulfinylmethyl)-7H-pyrrolo[3,4-b]pyridin-5-one] | 6.97
12 | CCOc1ccc(O[C@@H]2CCN(c3cc(F)c4c(c3)C(=O)N(CC(=O)OC)C4)C2=O)cn1 [Example 1-31, methyl 2-[6-[(3R)-3-[(6-ethoxy-3-pyridyl)oxy]-2-oxo-pyrrolidin-1-yl]-4-fluoro-1-oxo-isoindolin-2-yl]acetate] | 7.19
13 | CN(C)C(=O)CN1Cc2ccc(N3CC[C@@H](Oc4ccc(Oc5ccc(F)cc5F)nc4)C3=O)cc2C1=O [Example 1-48, 2-[6-[(3R)-3-[[6-(2,4-difluorophenoxy)-3-pyridyl]oxy]-2-oxo-pyrrolidin-1-yl]-1-oxo-isoindolin-2-yl]-N,N-dimethyl-acetamide] | 7.14
14 | Cn1nnc(N2Cc3ccc(N4CC[C@@H](Oc5ccc(OCC6CC6)nc5)C4=O)cc3C2=O)n1 [Example 1-10, 6-[(3R)-3-[[6-(cyclopropylmethoxy)-3-pyridyl]oxy]-2-oxo-pyrrolidin-1-yl]-2-(2-methyltetrazol-5-yl)isoindolin-1-one] | 6.57
15 | COC(=O)CN1C(=O)c2cc(N3CC[C@@H](Oc4ccc(OCC5CC5)nc4)C3=O)ccc2C1C (stereo partly drawn) [Example 1-15, methyl 2-[5-[(3R)-3-[[6-(cyclopropylmethoxy)-3-pyridyl]oxy]-2-oxo-pyrrolidin-1-yl]-1-methyl-3-oxo-isoindolin-2-yl]acetate] | 6.66
16 | CN(C)C(=O)CN1Cc2ccc(N3CC[C@H](Oc4ccc(OCC5CC5)nc4)C3=O)cc2C1=O [Example 1-25, 2-[6-[(3S)-3-[[6-(cyclopropylmethoxy)-3-pyridyl]oxy]-2-oxo-pyrrolidin-1-yl]-1-oxo-isoindolin-2-yl]-N,N-dimethyl-acetamide] | 6.36

The next lines start with the values.

Row | pEC50 | SMILES
17 | 7.21 | COCCNC(=O)CN1Cc2c(F)cc(N3CC[C@@H](Oc4ccc(OCCC5CC5)nc4)C3=O)cc2C1=O [Example 4-20, 2-[6-[(3R)-3-[[6-(2-cyclopropylethoxy)-3-pyridyl]oxy]-2-oxo-pyrrolidin-1-yl]-4-fluoro-1-oxo-isoindolin-2-yl]-N-(2-methoxyethyl)acetamide]
18 | 6.35 | O=C(CN1Cc2ccc(N3CC[C@@H](Oc4ccc(OCC5CC5)nc4)C3=O)cc2C1=O)NC(CO)CO [Example 4-32, 2-[6-[(3R)-3-[[6-(cyclopropylmethoxy)-3-pyridyl]oxy]-2-oxo-pyrrolidin-1-yl]-1-oxo-isoindolin-2-yl]-N-[2-hydroxy-1-(hydroxymethyl)ethyl]acetamide]
19 | 6.97 | CN(C)C(=O)CN1Cc2ccc(N3CC[C@@H](Oc4ccc(OC(F)(F)F)cc4)C3=O)cc2C1=O [Example 2-01, N,N-dimethyl-2-[1-oxo-6-[(3R)-2-oxo-3-[4-(trifluoromethoxy)phenoxy]pyrrolidin-1-yl]isoindolin-2-yl]acetamide]
20 | 7.34 | CN(C)C(=O)CN1Cc2c(F)cc(N3CC[C@@H](Oc4ccc(OCCC5CC5)nc4)C3=O)cc2C1=O [Example 4-27, 2-[6-[(3R)-3-[[6-(2-cyclopropylethoxy)-3-pyridyl]oxy]-2-oxo-pyrrolidin-1-yl]-4-fluoro-1-oxo-isoindolin-2-yl]-N,N-dimethyl-acetamide]
21 | 6.69 | O=C(CN1Cc2ccc(N3CC[C@@H](Oc4ccc(OCC5CC5)nc4)C3=O)cc2C1=O)N1CCC(O)CC1 [Example 4-03, 6-[(3R)-3-[[6-(cyclopropylmethoxy)-3-pyridyl]oxy]-2-oxo-pyrrolidin-1-yl]-2-[2-(4-hydroxy-1-piperidyl)-2-oxo-ethyl]isoindolin-1-one]
22 | 4.48 | CN(C)C(=O)CN1Cc2ccc(N3CC[C@@H](Oc4ccc(-n5cnnc5)cc4)C3=O)cc2C1=O [Example 2-36, N,N-dimethyl-2-[1-oxo-6-[(3R)-2-oxo-3-[4-(1,2,4-triazol-4-yl)phenoxy]pyrrolidin-1-yl]isoindolin-2-yl]acetamide]
23 | 6.09 | O=C(O)CNC(=O)CN1Cc2ccc(N3CC[C@@H](Oc4ccc(OCC5CC5)nc4)C3=O)cc2C1=O [Example 3-04, 2-[[2-[6-[(3R)-3-[[6-(cyclopropylmethoxy)-3-pyridyl]oxy]-2-oxo-pyrrolidin-1-yl]-1-oxo-isoindolin-2-yl]acetyl]amino]acetic acid]
24 | 6.57 | CCC(=O)c1ccc(O[C@@H]2CCN(c3ccc4c(c3)C(=O)N(CC(=O)N(C)C)C4)C2=O)cc1 [Example 2-11, N,N-dimethyl-2-[1-oxo-6-[(3R)-2-oxo-3-(4-propanoylphenoxy)pyrrolidin-1-yl]isoindolin-2-yl]acetamide]
25 | 6.60 | CN(C)C(=O)CN1Cc2ccc(N3CC[C@@H](Oc4ccc(C(=O)C5CC5)nc4)C3=O)cc2C1=O [Example 2-58, 2-[6-[(3R)-3-[[6-(cyclopropanecarbonyl)-3-pyridyl]oxy]-2-oxo-pyrrolidin-1-yl]-1-oxo-isoindolin-2-yl]-N,N-dimethyl-acetamide]
26 | 6.89 | NC(=O)CN1Cc2ccc(N3CC[C@@H](Oc4ccc(C(=O)C5CC5)cc4)C3=O)cc2C1=O [Example 2-53, 2-[6-[(3R)-3-[4-(cyclopropanecarbonyl)phenoxy]-2-oxo-pyrrolidin-1-yl]-1-oxo-isoindolin-2-yl]acetamide]
